Reference: patent US4481200A, “α2 -Adrenoceptor antagonistic benzoquinolizines” (John Wyeth & Brother, Limited, priority 1982, dated 1984)

What was measured:
[1] = target: T1, α2-adrenoceptor (Rattus norvegicus, UniProt P22909); assay: α2-adrenoceptor antagonistic activity on the rat field stimulated vas deferens preparation (clonidine as agonist); settings: antagonism of clonidine, 37°, 90 min after introduction of antagonist, Arunlakshana & Schild, read-out: pA2 (α2) (converted)
T1 construct: from tissue; host or cells: rat vas deferens
T1 sequence (P22909 1-465): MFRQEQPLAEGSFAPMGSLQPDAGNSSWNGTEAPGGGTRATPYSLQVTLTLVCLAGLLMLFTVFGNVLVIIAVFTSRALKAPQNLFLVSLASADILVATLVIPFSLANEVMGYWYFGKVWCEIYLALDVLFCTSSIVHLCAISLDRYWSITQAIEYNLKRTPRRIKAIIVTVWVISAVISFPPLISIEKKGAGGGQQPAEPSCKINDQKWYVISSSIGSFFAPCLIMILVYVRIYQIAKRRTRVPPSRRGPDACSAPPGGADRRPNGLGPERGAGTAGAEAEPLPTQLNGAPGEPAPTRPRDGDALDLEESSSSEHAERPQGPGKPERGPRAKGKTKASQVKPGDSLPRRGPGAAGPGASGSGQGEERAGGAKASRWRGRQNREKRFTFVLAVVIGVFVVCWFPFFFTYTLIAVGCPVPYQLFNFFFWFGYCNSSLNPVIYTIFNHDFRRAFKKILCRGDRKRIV
Experimental: The compounds of the invention were tested for α2 -adrenoceptor antagonistic activity on the rat field stimulated vas deferens preparation using a modification of the method of Drew, Eur. J. Pharmac., 1977, 42, 123-130. The procedure is described below.
Desheathed vasa deferentia from sexually mature rats were suspended in a 6 ml organ bath in Krebs solution at 37° and bubbled with 5% CO2 in oxygen. Platinum ring electrodes were positioned above and below the tissue for field stimulation, The stimulus parameters being 0.1 Hz 1 ms pulse width at supramaximal voltage. Twitch responses were recorded isotonically with a 0.5 g loading. Clonidine hydrochloride was used as the α-adrenoceptor agonist and cumulative concentration-response curves were constructed for the inhibition of twitch obtained with clonidine in the range 0.125 to 4 ng ml^-1. After washing out clonidine, the twitch response quickly recovered and an antagonist was then introduced into the Krebs reservoir. Clonidine concentration-response curves were repeated 90 min after introduction of the antagonist. The concentration of clonidine producing 50% inhibition of twitch before and after introduction of antagonist were obtained and the dose-ratio for clonidine was calculated. Various concentrations of the antagonists were used.
Chemother., 1959, 14, 48-58 and the values of pA2 and slope were calculated.

[2] = target: T2, α1-adrenoceptor (Rattus norvegicus, UniProt P43140); assay: α1 antagonistic activity on the isolated anococcygeus muscle of the rat (phenylephrine or methoxamine as agonist); settings: antagonism of phenylephrine or methoxamine, rat anococcygeus muscle, 37°, 30 min equilibration, 10^-6 to 10^-4 M; Arunlakshana & Schild; read-out: pA2 (α1) (converted)
T2 construct: One method involves assessing the activity on the isolated anococcygeus muscle of the rat; from tissue; host or cells: rat anococcygeus muscle
T2 sequence (P43140 1-466): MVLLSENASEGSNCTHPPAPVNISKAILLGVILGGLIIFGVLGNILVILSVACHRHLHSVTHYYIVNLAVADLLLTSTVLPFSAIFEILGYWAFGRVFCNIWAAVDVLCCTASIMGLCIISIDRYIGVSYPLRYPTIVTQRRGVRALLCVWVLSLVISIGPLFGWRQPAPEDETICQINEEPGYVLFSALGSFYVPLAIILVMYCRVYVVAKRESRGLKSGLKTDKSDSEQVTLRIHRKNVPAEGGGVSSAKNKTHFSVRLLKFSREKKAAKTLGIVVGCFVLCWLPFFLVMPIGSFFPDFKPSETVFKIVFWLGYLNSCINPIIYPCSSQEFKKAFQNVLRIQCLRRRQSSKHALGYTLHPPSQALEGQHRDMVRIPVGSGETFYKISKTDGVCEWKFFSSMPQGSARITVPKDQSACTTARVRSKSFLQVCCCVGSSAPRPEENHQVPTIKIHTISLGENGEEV
Description: (§1) The compounds of the invention antagonise the α2 -adrenoceptors to a much greater extent than the α1 -adrenoceptors. The α1 antagonistic activity can be evaluated by a number of different methods. One method involves assessing the activity on the isolated anococcygeus muscle of the rat. The method is based on that of Gillespie, Br.J.Pharmac., 1972, 45, 404-416. In the procedure male rats (250-360 g) are killed by a blow on the head and bled. The two anococcygeus muscles are removed from their position in the midline of the pelvic cavity, where they arise from the upper coccygeal vertebrae. The muscles are suspended in 5 ml organ baths in Krebs solution containing 10^-4 M ascorbic acid, to prevent drug oxidation. The tissues are gassed with a 95% oxygen, 5% CO2 mixture and maintained at 37°. Longitudinal muscle contractions are recorded using isotonic transducers. Cumulative dose response curves are then obtained to phenylephrine or in some cases methoxamine, both agents being […] alpha adrenoceptor agonists. The concentration range of phenylephrine or methoxamine used is 0.02 to 0.8 μg.ml^-1. The agonist is then washed from the bath and the test drug added to the bathing medium at a concentration of 10^-6 M. After 30 min equilibration with the test drug a further agonist dose response curve is obtained. The washing, equilibration and agonists dosing procedures are then repeated using 10^-5 M and 10^-4 M solutions of the test drug. Estimates of the pA2 value for the test drug as an antagonist of phenylephrine or methoxamine were made from the agonist dose-ratios using the method of Arunlakshana & Schild, Br.J.Pharmac. Chemother., 1959, 14, 48-58.

[3] = tested on: α1-adrenoceptor; assay: as above; settings: antilog of (α2 pA2-α1 pA2)
Description: as §1

Kb [1]	Kb [2]	SMILES	α2/α1 selectivity [3]
0.0363 µM	0.646 µM	CNS(=O)(=O)N(C)[C@@H]1CCN2CCc3ccccc3[C@@H]2C1 (relative stereo) [Example 1, N-Methyl-N-(1,3,4,6,7,11bα-hexahydro-2H-benzo[a]quinolizin-2β-yl)-N'-methylsulphamide]	18
0.0398 µM	1.12 µM	CN(C)S(=O)(=O)N(C)[C@@H]1CCN2CCc3ccccc3[C@@H]2C1 (relative stereo) [Example 2, N,N,N'-Trimethyl-N'-[1,3,4,6,7,11bα-hexahydro-2H-benzo[a]quinolizin-2β-yl]sulphamide]	28
0.055 µM	2.51 µM	CN(C)CCS(=O)(=O)N(C)[C@@H]1CCN2CCc3ccccc3[C@@H]2C1 (relative stereo) [Example 3, N-Methyl-N-(1,3,4,6,7,11bα-hexahydro-2H-benzo[a]quinolizin-2β-yl)-2-dimethylaminoethanesulphonamide]	46
0.0372 µM	0.363 µM	CC(C)NS(=O)(=O)N(C)[C@@H]1CCN2CCc3ccccc3[C@@H]2C1 (relative stereo) [Example 4, N-(i-Propyl)-N'-(1,3,4,6,7,11bα-hexahydro-2H-benzo[a]quinolizin-2β-yl)-N'-methylsulphamide]	10
